Test results reported in patent publication US20240409585A1, “MACROCYCLIC IMMUNOMODULATORS” (priority 2021, published 2024).
Blank lines part the entries; values can stand above or below the molecule they belong to. Bridge positions count the residues as written; N and C are the ends. Square brackets hold non-standard residues; d marks the D form. Peptide text beside a SMILES is read from it. * marks the point of attachment. ξ: configuration not given here. Tyr(3-NO2) = N[C@@H](Cc1ccc(O)c([N+](=O)[O-])c1)C(=O)O; Phe(4-COOH) = N[C@@H](Cc1ccc(C(=O)O)cc1)C(=O)O; Phe(4-CH2NH2) = NCc1ccc(C[C@H](N)C(=O)O)cc1; Bip = N[C@@H](Cc1ccc(-c2ccccc2)cc1)C(=O)O; Phe(3-Cl) = N[C@@H](Cc1cccc(Cl)c1)C(=O)O; Phe(3-Me) = Cc1cccc(C[C@H](N)C(=O)O)c1; Val(3-OH) = CC(C)(O)[C@H](N)C(=O)O; 4Pal = N[C@@H](Cc1ccncc1)C(=O)O; Cha = N[C@@H](CC1CCCCC1)C(=O)O; Cit = NC(=O)NCCC[C@H](N)C(=O)O; Ile(3ξ) = CCC(C)[C@H](N)C(=O)O; Thr(3ξ) = CC(O)[C@H](N)C(=O)O; Carboxymethyl = O=C(O)C*; NMeA = CN[C@@H](C)C(=O)O; Nle = CCCC[C@H](N)C(=O)O; Orn = NCCC[C@H](N)C(=O)O; Dab = NCC[C@H](N)C(=O)O; NH(CH2)3NH2 = NCCCN*

Biological target: T1, PE-labeled human PD-L1-Ig binding to Jurkat cell line over-expressing human PD-1 (Jurkat-PD-1) (Homo sapiens, UniProt Q15116)
T1 construct: expressed in transfected cells; host or cells: Jurkat
T1 sequence (Q15116 25-288): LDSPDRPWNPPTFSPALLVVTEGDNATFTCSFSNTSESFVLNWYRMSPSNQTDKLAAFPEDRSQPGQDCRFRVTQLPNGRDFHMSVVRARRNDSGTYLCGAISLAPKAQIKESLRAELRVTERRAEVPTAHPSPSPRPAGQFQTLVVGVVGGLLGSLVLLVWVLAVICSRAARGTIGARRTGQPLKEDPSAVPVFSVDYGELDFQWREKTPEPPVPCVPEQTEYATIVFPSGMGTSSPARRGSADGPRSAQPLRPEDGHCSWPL
Test: Jurkat-PD-1 Cell Binding High-Content Screening Assay (CBA): Method 1
Conditions: Jurkat-hPD-1 cells, PE-labeled PD-L1-Ig 20 nM final; read-out: Jurkat HPDL1 PD1 IC50 (uM) (Method 1)

SMILES: CC(C)C[C@@H]1NC(=O)[C@H](CCCNC(=N)N)NC(=O)[C@@H](CC(C)C)NC(=O)[C@H](C)N(C)C(=O)[C@H](CCCNC(N)=O)NC(=O)[C@H](Cc2ccc(-c3ccccc3)cc2)NC(=O)[C@H](C(C)C)NC(=O)[C@H](Cc2c[nH]c3ccccc23)NC(=O)[C@H](CC(=O)O)NC(=O)[C@H](Cc2ccc(O)cc2)NC(=O)[C@H](CC(N)=O)NC(=O)CSC[C@@H](C(=O)N[C@@H](C)C(N)=O)NC(=O)[C@H](CO)NC(=O)[C@H](C(C)C)NC1=O [Compound 1227] ({CH2CO}-NYDWV[Bip][Cit][NMeA][dL]RLVSCA-NH2; thioether N-14)
- IC50: 0.04 µM

SMILES: Cc1cccc(C[C@@H]2NC(=O)[C@H](CC(=O)O)NC(=O)[C@H](Cc3ccc(OCC(=O)O)cc3)NC(=O)[C@H](Cc3ccncc3)NC(=O)CSC[C@@H](C(N)=O)NC(=O)[C@H](CCCN)NC(=O)[C@H](C(C)C)NC(=O)[C@H](CC3CCCCC3)NC(=O)[C@H](CCN)NC(=O)[C@@H](CC(C)C)NC(=O)[C@H](C)N(C)C(=O)[C@H](Cc3ccc(OCC(=O)O)cc3)NC(=O)[C@H](Cc3ccc(-c4ccccc4)cc3)NC(=O)[C@H](Cc3ccc(OCC(=O)O)cc3)NC2=O)c1 [Compound 1662] ({CH2CO}-[4Pal]Y(Carboxymethyl)D[Phe(3-Me)]Y(Carboxymethyl)[Bip]Y(Carboxymethyl)[NMeA][dL][Dab][Cha]V[Orn]C-NH2; thioether N-14)
- IC50: 0.01 µM

SMILES: CCC(C)[C@@H]1NC(=O)[C@H](Cc2ccc(-c3ccccc3)cc2)NC(=O)[C@H](C(C)C)NC(=O)[C@H](Cc2c[nH]c3ccccc23)NC(=O)[C@H](CC(=O)O)NC(=O)[C@H](Cc2ccc(O)cc2)NC(=O)[C@H](CCN)NC(=O)CSC[C@@H](C(=O)N[C@H](C(N)=O)C(C)C)NC(=O)[C@H](C(C)O)NC(=O)[C@H](C(C)(C)O)NC(=O)[C@H](CC2CCCCC2)NC(=O)[C@H](CC(N)=O)NC(=O)[C@@H](CC(C)C)NC(=O)[C@H](C)N(C)C1=O (stereo partly drawn) [Compound 2173] ({CH2CO}-[Dab]YDWV[Bip][Ile(3ξ)][NMeA][dL]N[Cha][Val(3-OH)][Thr(3ξ)]CV-NH2; thioether N-14)
- IC50: 0.19 µM

SMILES: CC(C)C[C@@H]1NC(=O)[C@H](CCCNC(=N)N)NC(=O)[C@@H](CC(C)C)NC(=O)[C@H](C)N(C)C(=O)[C@H](CCCNC(=N)N)NC(=O)[C@H](Cc2ccc(-c3ccccc3)cc2)NC(=O)[C@H](C(C)C)NC(=O)[C@H](Cc2cccc(Cl)c2)NC(=O)[C@H](CC(=O)O)NC(=O)[C@H](Cc2ccc(O)cc2)NC(=O)[C@H](CC(N)=O)NC(=O)CSC[C@@H](C(=O)N[C@@H](C)C(N)=O)NC(=O)[C@H]([C@@H](C)O)NC(=O)[C@H](C(C)C)NC1=O [Compound 1127] ({CH2CO}-NYD[Phe(3-Cl)]V[Bip]R[NMeA][dL]RLVTCA-NH2; thioether N-14)
- IC50: 0.09 µM

SMILES: CC(C)C[C@@H]1NC(=O)[C@H](CCCNC(=N)N)NC(=O)[C@@H](CC(C)C)NC(=O)[C@H](C)N(C)C(=O)[C@H](CCCNC(=N)N)NC(=O)[C@H](Cc2ccc(-c3ccccc3)cc2)NC(=O)[C@H](C(C)C)NC(=O)[C@H](Cc2c[nH]c3ccccc23)NC(=O)[C@H](CC(=O)O)NC(=O)[C@H](Cc2ccc(O)c([N+](=O)[O-])c2)NC(=O)[C@H](Cc2ccccc2)NC(=O)CSC[C@@H](C(=O)N[C@@H](C)C(N)=O)NC(=O)[C@H]([C@@H](C)O)NC(=O)[C@H](C(C)C)NC1=O [Compound 1095] ({CH2CO}-F[Tyr(3-NO2)]DWV[Bip]R[NMeA][dL]RLVTCA-NH2; thioether N-14)
- IC50: 0.15 µM

SMILES: CC(=O)NCCCC[C@@H]1NC(=O)[C@H](C(C)C)NC(=O)[C@H](CC2CCCCC2)NC(=O)[C@H](CCN)NC(=O)[C@@H](CC(C)C)NC(=O)[C@H](C)N(C)C(=O)[C@H](CCC(N)=O)NC(=O)[C@H](Cc2ccc(-c3ccccc3)cc2)NC(=O)[C@H](C(C)C)NC(=O)[C@H](Cc2cccc(C)c2)NC(=O)[C@H](CC(=O)O)NC(=O)[C@H](Cc2ccc(OCC(=O)O)cc2)NC(=O)[C@H](Cc2ccc(OCC(=O)O)cc2)NC(=O)CSC[C@@H](C(=O)NCCCN)NC1=O [Compound 2265] ({CH2CO}-Y(Carboxymethyl)Y(Carboxymethyl)D[Phe(3-Me)]V[Bip]Q[NMeA][dL][Dab][Cha]VK(Ac)C-{NH(CH2)3NH2}; thioether N-14)
- IC50: 0.02 µM

SMILES: CCCC[C@@H]1NC(=O)[C@H](CC(N)=O)NC(=O)[C@@H](C)NC(=O)[C@H](C)N(C)C(=O)[C@H](C(C)C)NC(=O)[C@H](Cc2ccc(-c3ccccc3)cc2)NC(=O)[C@H](CC(C)C)NC(=O)[C@H](Cc2c[nH]c3ccccc23)NC(=O)[C@H](CC(=O)O)NC(=O)[C@H](Cc2ccc(O)cc2)NC(=O)[C@H](Cc2ccccc2)NC(=O)CSC[C@@H](C(=O)N[C@@H](C)C(N)=O)NC(=O)[C@H]([C@@H](C)O)NC(=O)[C@H](CCCCN)NC1=O [Compound 1790] ({CH2CO}-FYDWL[Bip]V[NMeA][dA]N[Nle]KTCA-NH2; thioether N-14)
- IC50: 0.13 µM

SMILES: CC[C@H](C)[C@@H]1NC(=O)[C@H](Cc2ccc(-c3ccccc3)cc2)NC(=O)[C@H](CC(C)C)NC(=O)[C@H](Cc2c[nH]c3ccccc23)NC(=O)[C@H](CC(=O)O)NC(=O)[C@H](Cc2ccc(OCC(=O)O)cc2)NC(=O)[C@H](Cc2ccccc2)NC(=O)CSC[C@@H](C(N)=O)NC(=O)[C@H](CO)NC(=O)[C@H](C(C)C)NC(=O)[C@H](CC(C)C)NC(=O)[C@H](CC(N)=O)NC(=O)[C@@H](CC(C)C)NC(=O)[C@H](C)N(C)C1=O [Compound 1629] ({CH2CO}-FY(Carboxymethyl)DWL[Bip]I[NMeA][dL]NLVSC-NH2; thioether N-14)
- IC50: 0.05 µM

SMILES: CC(=O)NCCCC[C@@H]1NC(=O)[C@H](C(C)C)NC(=O)[C@H](CC2CCCCC2)NC(=O)[C@H](CCC(=O)O)NC(=O)[C@@H](CC(C)C)NC(=O)[C@H](C)N(C)C(=O)[C@H](Cc2cnc[nH]2)NC(=O)[C@H](Cc2ccc(-c3ccccc3)cc2)NC(=O)[C@H](CC(C)C)NC(=O)[C@H](Cc2cccc(C)c2)NC(=O)[C@H](CC(=O)O)NC(=O)[C@H](Cc2ccc(OCC(=O)O)cc2)NC(=O)[C@H](Cc2ccc(OCC(=O)O)cc2)NC(=O)CSC[C@@H](C(=O)N[C@H](C)C(N)=O)NC1=O [Compound 2124] ({CH2CO}-Y(Carboxymethyl)Y(Carboxymethyl)D[Phe(3-Me)]L[Bip]H[NMeA][dL]E[Cha]VK(Ac)C[dA]-NH2; thioether N-14)
- IC50: 0.04 µM

SMILES: CC(=O)NCCCC[C@@H]1NC(=O)[C@H](Cc2ccc(-c3ccccc3)cc2)NC(=O)[C@H](Cc2ccc(O)cc2)NC(=O)[C@H](Cc2cccc(C)c2)NC(=O)[C@H](CC(=O)O)NC(=O)[C@H](Cc2ccc(OCC(=O)O)cc2)NC(=O)[C@H](C(C)O)NC(=O)CSC[C@@H](C(=O)N[C@@H](CO)C(N)=O)NC(=O)[C@H](C(C)O)NC(=O)[C@H](C(C)C)NC(=O)[C@H](CC2CCCCC2)NC(=O)[C@H](CCN)NC(=O)[C@@H](CC(C)C)NC(=O)[C@H](C)N(C)C1=O (stereo partly drawn) [Compound 2119] ({CH2CO}-[Thr(3ξ)]Y(Carboxymethyl)D[Phe(3-Me)]Y[Bip]K(Ac)[NMeA][dL][Dab][Cha]V[Thr(3ξ)]CS-NH2; thioether N-14)
- IC50: 0.02 µM

The next lines start with the values.

- IC50: 0.09 µM
SMILES: CC(C)C[C@@H]1NC(=O)[C@H](CCN)NC(=O)[C@@H](CC(C)C)NC(=O)[C@H](C)N(C)C(=O)[C@H](CCCNC(=N)N)NC(=O)[C@H](Cc2ccc(-c3ccccc3)cc2)NC(=O)[C@H](C(C)C)NC(=O)[C@H](Cc2c[nH]c3ccccc23)NC(=O)[C@H](CC(=O)O)NC(=O)[C@H](Cc2ccc(O)cc2)NC(=O)[C@H](CC(N)=O)NC(=O)CSC[C@@H](C(=O)N[C@@H](C)C(N)=O)NC(=O)[C@H](CCCN)NC(=O)[C@H](C(C)C)NC1=O [Compound 1242] ({CH2CO}-NYDWV[Bip]R[NMeA][dL][Dab]LV[Orn]CA-NH2; thioether N-14)

- IC50: 0.09 µM
SMILES: CCC(C)[C@@H]1NC(=O)[C@H](Cc2ccc(-c3ccccc3)cc2)NC(=O)[C@H](C(C)C)NC(=O)[C@H](Cc2c[nH]c3ccccc23)NC(=O)[C@H](CC(=O)O)NC(=O)[C@H](Cc2ccc(O)cc2)NC(=O)[C@H](Cc2ccncc2)NC(=O)CSC[C@@H](C(=O)N[C@@H](C)C(N)=O)NC(=O)[C@H](C(C)O)NC(=O)[C@H](C(C)C)NC(=O)[C@H](CC2CCCCC2)NC(=O)[C@H](Cc2ccc(CN)cc2)NC(=O)[C@@H](CC(C)C)NC(=O)[C@H](C)N(C)C1=O (stereo partly drawn) [Compound 2049] ({CH2CO}-[4Pal]YDWV[Bip][Ile(3ξ)][NMeA][dL][Phe(4-CH2NH2)][Cha]V[Thr(3ξ)]CA-NH2; thioether N-14)

- IC50: 0.04 µM
SMILES: CC(C)C[C@@H]1NC(=O)[C@H](CCN)NC(=O)[C@@H](CC(C)C)NC(=O)[C@H](C)N(C)C(=O)[C@H](CCCNC(N)=O)NC(=O)[C@H](Cc2ccc(-c3ccccc3)cc2)NC(=O)[C@H](C(C)C)NC(=O)[C@H](Cc2c[nH]c3ccccc23)NC(=O)[C@H](CC(=O)O)NC(=O)[C@H](Cc2ccc(O)c([N+](=O)[O-])c2)NC(=O)[C@H](CC(N)=O)NC(=O)CSC[C@@H](C(=O)N[C@@H](C)C(N)=O)NC(=O)[C@H]([C@@H](C)O)NC(=O)[C@H](C(C)C)NC1=O [Compound 1319] ({CH2CO}-N[Tyr(3-NO2)]DWV[Bip][Cit][NMeA][dL][Dab]LVTCA-NH2; thioether N-14)

- IC50: 0.01 µM
SMILES: CC(C)C[C@@H]1NC(=O)[C@H](CCN)NC(=O)[C@@H](CC(C)C)NC(=O)[C@H](C)N(C)C(=O)[C@H](C(C)C)NC(=O)[C@H](Cc2ccc(-c3ccccc3)cc2)NC(=O)[C@H](C(C)C)NC(=O)[C@H](Cc2c[nH]c3ccccc23)NC(=O)[C@H](CC(=O)O)NC(=O)[C@H](Cc2ccc(C(=O)O)cc2)NC(=O)[C@H](Cc2ccc(OCC(=O)O)cc2)NC(=O)CSC[C@@H](C(=O)N[C@@H](C)C(N)=O)NC(=O)[C@H]([C@@H](C)O)NC(=O)[C@H](C(C)C)NC1=O [Compound 1570] ({CH2CO}-Y(Carboxymethyl)[Phe(4-COOH)]DWV[Bip]V[NMeA][dL][Dab]LVTCA-NH2; thioether N-14)

- IC50: 0.01 µM
SMILES: CC(C)C[C@@H]1NC(=O)[C@H](CCN)NC(=O)[C@@H](CC(C)C)NC(=O)[C@H](C)N(C)C(=O)[C@H](C(C)C)NC(=O)[C@H](Cc2ccc(-c3ccccc3)cc2)NC(=O)[C@H](C(C)C)NC(=O)[C@H](Cc2c[nH]c3ccccc23)NC(=O)[C@H](CC(=O)O)NC(=O)[C@H](Cc2ccc(O)cc2)NC(=O)[C@H](Cc2cnc[nH]2)NC(=O)CSC[C@@H](C(=O)N[C@@H](C)C(N)=O)NC(=O)[C@H]([C@@H](C)O)NC(=O)[C@H](C(C)C)NC1=O [Compound 1358] ({CH2CO}-HYDWV[Bip]V[NMeA][dL][Dab]LVTCA-NH2; thioether N-14)
